≈ marks a conversion by molar mass, not a printed value.
Columns and labels:
THP-1 = test: Cytotoxicity against human THP1 cells after 24 hrs by MTS assay; type: cell-based; settings: THP-1, 24 h
Streptococcus pneumoniae [1] = test: Antibacterial activity against inducible resistance to macrolide and constitutive resistance to lincosamide Streptococcus pneumoniae 134 GR M by broth microdilution method; type: functional
Streptococcus pyogenes [2] = test: Antibacterial activity against inducible resistance to macrolide, licosamide and streptogramin Streptococcus pyogenes 11 by broth microdilution method; type: functional; settings: read-out: MIC
Haemophilus influenzae = test: Antibacterial activity against Haemophilus influenzae ATCC 49247 by broth microdilution method; type: functional
Streptococcus pneumoniae [3] = test: Antibacterial activity against constitutive MLS resistance Streptococcus pneumoniae 58 by broth microdilution method; type: functional
Staphylococcus aureus [4] = test: Antibacterial activity against inducible resistance to macrolide, licosamide, and streptogramin Staphylococcus aureus 90265/97 by broth microdilution method; type: functional
Streptococcus pyogenes [5] = test: Antibacterial activity against efflux-mediated macrolide-resistance Streptococcus pyogenes 2 by broth microdilution method; type: functional
HepG2 = test: Cytotoxicity against human HepG2 cells after 24 hrs by MTS assay; type: cell-based; settings: HepG2, 24 h
Streptococcus pyogenes [6] = test: Antibacterial activity against constitutive MLS resistance Streptococcus pyogenes 166 GR-Micro by broth microdilution method; type: functional
Staphylococcus aureus [7] = test: Antibacterial activity against efflux-mediated macrolide-resistance Staphylococcus aureus PK1 by broth microdilution method; type: functional
Streptococcus pneumoniae [8] = test: Antibacterial activity against efflux-mediated macrolide-resistance Streptococcus pneumoniae Ci137 by broth microdilution method; type: functional; settings: read-out: MIC

Row | SMILES | IC50 (THP-1) [µM] | MIC (Streptococcus pneumoniae [1]) [µg/mL] | MIC (Streptococcus pyogenes [2]) [µg/mL] | MIC (Haemophilus influenzae) [µg/mL] | MIC (Streptococcus pneumoniae [3]) [µg/mL] | MIC (Staphylococcus aureus [4]) [µg/mL] | MIC (Streptococcus pyogenes [5]) [µg/mL] | IC50 (HepG2) [µM] | MIC (Streptococcus pyogenes [6]) [µg/mL] | MIC (Staphylococcus aureus [7]) [µg/mL] | MIC (Streptococcus pneumoniae [8]) [µg/mL]
1 | CCCCn1cc(C(=O)O)c(=O)c2cc(CCCOCCCO[C@H]3[C@H](C)O[C@@H](O[C@H]4[C@H](C)[C@@H](O[C@@H]5O[C@H](C)C[C@H](N(C)C)[C@H]5O)[C@](C)(O)C[C@@H](C)CN(C)[C@H](C)[C@@H](O)[C@](C)(O)[C@@H](CC)OC(=O)[C@@H]4C)C[C@@]3(C)OC)ccc21 | 27 | ≤ 0.125 | ≤ 0.125 | 1 (≈ 0.915 µM) | ≤ 0.125 | ≤ 0.125 | ≤ 0.125 | 49 | ≤ 0.125 | ≤ 0.125 | ≤ 0.125
2 | CCCn1cc(C(=O)O)c(=O)c2cc(CCCOCCCO[C@H]3[C@H](C)O[C@@H](O[C@H]4[C@H](C)[C@@H](O[C@@H]5O[C@H](C)C[C@H](N(C)C)[C@H]5O)[C@](C)(O)C[C@@H](C)CN(C)[C@H](C)[C@@H](O)[C@](C)(O)[C@@H](CC)OC(=O)[C@@H]4C)C[C@@]3(C)OC)ccc21 | 18 | ≤ 0.125 | ≤ 0.125 | 2 (≈ 1.85 µM) | ≤ 0.125 | 0.25 (≈ 0.232 µM) | ≤ 0.125 | 40 | 0.25 (≈ 0.232 µM) | ≤ 0.125 | ≤ 0.125
3 | CC[C@H]1OC(=O)[C@H](C)[C@@H](O[C@H]2C[C@@](C)(OC)[C@@H](OCCCOCCCc3ccc4c(c3)c(=O)c(C(=O)O)cn4C(C)C)[C@H](C)O2)[C@H](C)[C@@H](O[C@@H]2O[C@H](C)C[C@H](N(C)C)[C@H]2O)[C@](C)(O)C[C@@H](C)CN(C)[C@H](C)[C@@H](O)[C@]1(C)O | 46 | < 0.125 | ≤ 0.125 | 4 (≈ 3.71 µM) | ≤ 0.125 | ≤ 0.125 | ≤ 0.125 | > 50 | ≤ 0.125 | ≤ 0.125 | ≤ 0.125
4 | CC[C@H]1OC(=O)[C@H](C)[C@@H](O[C@H]2CC(C)(OC)[C@@H](OCCCOCCCc3ccc4c(c3)c(=O)c(C(=O)O)cn4C(C)(C)C)[C@H](C)O2)[C@H](C)[C@@H](O[C@@H]2O[C@H](C)C[C@H](N(C)C)[C@H]2O)[C@](C)(O)C[C@@H](C)CN(C)[C@H](C)[C@@H](O)[C@]1(C)O (some centres undefined) | 40 | ≤ 0.125 | ≤ 0.125 | 2 (≈ 1.83 µM) | ≤ 0.125 | ≤ 0.125 | ≤ 0.125 | > 50 | ≤ 0.125 | ≤ 0.125 | ≤ 0.125
5 | CC[C@H]1OC(=O)[C@H](C)[C@@H](O[C@H]2C[C@@](C)(OC)[C@@H](OCCCOCCCc3ccc4c(c3)c(=O)c(C(=O)O)cn4N(C)C)[C@H](C)O2)[C@H](C)[C@@H](O[C@@H]2O[C@H](C)C[C@H](N(C)C)[C@H]2O)[C@](C)(O)C[C@@H](C)CN(C)[C@H](C)[C@@H](O)[C@]1(C)O | 48 | 0.25 (≈ 0.232 µM) | ≤ 0.125 | 2 (≈ 1.85 µM) | ≤ 0.125 | ≤ 0.125 | ≤ 0.125 | > 50 | ≤ 0.125 | ≤ 0.125 | ≤ 0.125
6 | CC[C@H]1OC(=O)[C@H](C)[C@@H](O[C@H]2C[C@@](C)(OC)[C@@H](OCCCOCCCc3ccc4c(c3)c(=O)c(C(=O)O)cn4C3CC3)[C@H](C)O2)[C@H](C)[C@@H](O[C@@H]2O[C@H](C)C[C@H](N(C)C)[C@H]2O)[C@](C)(O)C[C@@H](C)CN(C)[C@H](C)[C@@H](O)[C@]1(C)O | 48 | ≤ 0.125 | ≤ 0.125 | 2 (≈ 1.86 µM) | ≤ 0.125 | ≤ 0.125 | ≤ 0.125 | > 50 | ≤ 0.125 | ≤ 0.125 | ≤ 0.125
7 | CC[C@H]1OC(=O)[C@H](C)[C@@H](O[C@H]2C[C@@](C)(OC)[C@@H](O)[C@H](C)O2)[C@H](C)[C@@H](O[C@@H]2O[C@H](C)C[C@H](N(C)C)[C@H]2O)[C@](C)(O)C[C@@H](C)CN(C)[C@H](C)[C@@H](O)[C@]1(C)O [AZITHROMYCIN] |  | > 64 | 16 (≈ 21.4 µM) | 1 (≈ 1.34 µM) | > 64 | > 64 | 8 (≈ 10.7 µM) |  | > 64 | > 64 | 8 (≈ 10.7 µM)
8 | CC[C@H]1OC(=O)[C@H](C)C(=O)[C@H](C)[C@@H](O[C@@H]2O[C@H](C)C[C@H](N(C)C)[C@H]2O)[C@](C)(OC)C[C@@H](C)C(=O)[C@H](C)[C@H]2N(CCCCn3cnc(-c4cccnc4)c3)C(=O)O[C@]12C [TELITHROMYCIN] |  | 0.25 (≈ 0.308 µM) | ≤ 0.125 | 1 (≈ 1.23 µM) | 0.25 (≈ 0.308 µM) | ≤ 0.125 | 0.5 (≈ 0.616 µM) |  | 16 (≈ 19.7 µM) | 0.125 (≈ 0.154 µM) | 0.5 (≈ 0.616 µM)

From ChEMBL document CHEMBL1221321, “Synthesis and properties of macrolones characterized by two ether bonds in the linker” (Bioorg Med Chem, 2010)
